System: 624824-186-R-J3-PDC multicell spheroids, viability
Experiment: Anticancer human tumor 624824-186-R-J3-PDC patient-derived colon adenocarcinoma cell line growth inhibition [PI3K]
Conditions: for viability, T/C: stronger effect = lower value
Method in brief: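 Three cell types, namely tumor cells, endothelial cells and mesenchymal stem cells, formed each spheroid. Combinations with four PI3K inhibitors were screened at clinically achievable concentrations decreasing by half-log, and spheroid viability was recorded.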

[1] = curve of first compound, second compound 0.00316 µM
[2] = curve of first compound, second compound 0.01 µM
[3] = curve of first compound, second compound 0.0316 µM
[4] = curve of first compound, second compound 0.1 µM
[5] = curve of first compound, second compound 0.316 µM
[6] = curve of first compound, second compound 1 µM
[7] = second compound 0.00316 µM, first compound 0.0316 µM
[8] = second compound 0.00316 µM, first compound 0.1 µM
[9] = second compound 0.00316 µM, first compound 0.316 µM
[10] = second compound 0.00316 µM, first compound 1 µM
[11] = second compound 0.00316 µM, first compound 3.16 µM
[12] = second compound 0.00316 µM, first compound 10 µM
[13] = second compound 0.01 µM, first compound 0.0316 µM
[14] = second compound 0.01 µM, first compound 0.1 µM
[15] = second compound 0.01 µM, first compound 0.316 µM
[16] = second compound 0.01 µM, first compound 1 µM
[17] = second compound 0.01 µM, first compound 3.16 µM
[18] = second compound 0.01 µM, first compound 10 µM
[19] = second compound 0.0316 µM, first compound 0.0316 µM
[20] = second compound 0.0316 µM, first compound 0.1 µM
[21] = second compound 0.0316 µM, first compound 0.316 µM
[22] = second compound 0.0316 µM, first compound 1 µM
[23] = second compound 0.0316 µM, first compound 3.16 µM
[24] = second compound 0.0316 µM, first compound 10 µM
[25] = second compound 0.1 µM, first compound 0.0316 µM
[26] = second compound 0.1 µM, first compound 0.1 µM
[27] = second compound 0.1 µM, first compound 0.316 µM
[28] = second compound 0.1 µM, first compound 1 µM
[29] = second compound 0.1 µM, first compound 3.16 µM
[30] = second compound 0.1 µM, first compound 10 µM
[31] = second compound 0.316 µM, first compound 0.0316 µM
[32] = second compound 0.316 µM, first compound 0.1 µM
[33] = second compound 0.316 µM, first compound 0.316 µM
[34] = second compound 0.316 µM, first compound 1 µM
[35] = second compound 0.316 µM, first compound 3.16 µM
[36] = second compound 0.316 µM, first compound 10 µM
[37] = second compound 1 µM, first compound 0.0316 µM
[38] = second compound 1 µM, first compound 0.1 µM
[39] = second compound 1 µM, first compound 0.316 µM
[40] = second compound 1 µM, first compound 1 µM
[41] = second compound 1 µM, first compound 3.16 µM
[42] = second compound 1 µM, first compound 10 µM
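Also: spheroids exposed to agents for seven days before luminescence read.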
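For viability, T/C in this document: luminescent signal used as a stand-in for spheroid viability; percent viability relative to DMSO vehicle control wells taken as 100%.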

## CC1(C)CCC(Nc2ncc(C(F)(F)F)c(-c3c[nH]c4c(P(C)(C)=O)c(C#N)ccc34)n2)CN1 (stereo not drawn)
Compound 0.0316 µM
  viability, T/C: 106% [middle of 4 runs]
Compound 0.1 µM
  viability, T/C: 87.3% [middle of 4 runs]
Compound 0.316 µM
  viability, T/C: 96.5% [middle of 4 runs]
Compound 1 µM
  viability, T/C: 96.9% [middle of 4 runs]
Compound 3.16 µM
  viability, T/C: 100% [middle of 4 runs]
Compound 10 µM
  viability, T/C: 4.6% [middle of 4 runs]
Curve of compound
  IC50: 5.64 µM [middle of 4 runs]

## CC(Cn1ccc(-c2ccc(C#N)c(Cl)c2)n1)NC(=O)c1cc(C(C)O)[nH]n1 (stereo not drawn) + CC(Nc1ccc2c(c1)OCCn1cc(N3C(=O)OCC3C(F)F)nc1-2)C(N)=O
[1]
  IC50: > 10 µM
[2]
  IC50: > 10 µM
[3]
  IC50: > 10 µM
[4]
  IC50: > 10 µM
[5]
  IC50: > 10 µM
[6]
  IC50: > 10 µM
[7]
  viability, T/C: 98.3%
[8]
  viability, T/C: 98.6%
[9]
  viability, T/C: 94.7%
[10]
  viability, T/C: 92.7%
[11]
  viability, T/C: 94.6%
[12]
  viability, T/C: 103%
[13]
  viability, T/C: 93%
[14]
  viability, T/C: 100%
[15]
  viability, T/C: 115%
[16]
  viability, T/C: 101%
[17]
  viability, T/C: 103%
[18]
  viability, T/C: 95.5%
[19]
  viability, T/C: 110%
[20]
  viability, T/C: 96.4%
[21]
  viability, T/C: 97.4%
[22]
  viability, T/C: 107%
[23]
  viability, T/C: 112%
[24]
  viability, T/C: 99%
[25]
  viability, T/C: 101%
[26]
  viability, T/C: 97.5%
[27]
  viability, T/C: 93.3%
[28]
  viability, T/C: 102%
[29]
  viability, T/C: 102%
[30]
  viability, T/C: 91%
[31]
  viability, T/C: 94.2%
[32]
  viability, T/C: 96%
[33]
  viability, T/C: 101%
[34]
  viability, T/C: 91.4%
[35]
  viability, T/C: 91.5%
[36]
  viability, T/C: 77.8%
[37]
  viability, T/C: 87.6%
[38]
  viability, T/C: 88.2%
[39]
  viability, T/C: 83.8%
[40]
  viability, T/C: 88.7%
[41]
  viability, T/C: 81.9%
[42]
  viability, T/C: 79.1%

## CNC(=O)c1ccc(N2C(=S)N(c3ccc(C#N)c(C(F)(F)F)c3)C(=O)C2(C)C)cc1F + Cc1nc(NC(=O)N2CCCC2C(N)=O)sc1-c1ccnc(C(C)(C)C(F)(F)F)c1
[3]
  IC50: > 10 µM
[4]
  IC50: > 10 µM
[5]
  IC50: > 10 µM
[6]
  IC50: > 10 µM
Curve of first compound, second compound 3.16 µM
  IC50: > 10 µM
Curve of first compound, second compound 10 µM
  IC50: > 10 µM
[19]
  viability, T/C: 104%
[20]
  viability, T/C: 94.4%
[21]
  viability, T/C: 101%
[22]
  viability, T/C: 102%
[23]
  viability, T/C: 107%
[24]
  viability, T/C: 113%
[25]
  viability, T/C: 96.9%
[26]
  viability, T/C: 100%
[27]
  viability, T/C: 109%
[28]
  viability, T/C: 98.4%
[29]
  viability, T/C: 104%
[30]
  viability, T/C: 104%
[31]
  viability, T/C: 107%
[32]
  viability, T/C: 101%
[33]
  viability, T/C: 117%
[34]
  viability, T/C: 99.1%
[35]
  viability, T/C: 113%
[36]
  viability, T/C: 93%
[37]
  viability, T/C: 100%
[38]
  viability, T/C: 96.3%
[39]
  viability, T/C: 105%
[40]
  viability, T/C: 101%
[41]
  viability, T/C: 104%
[42]
  viability, T/C: 95%
Second compound 3.16 µM, first compound 0.0316 µM
  viability, T/C: 91.1%
Second compound 3.16 µM, first compound 0.1 µM
  viability, T/C: 89.4%
Second compound 3.16 µM, first compound 0.316 µM
  viability, T/C: 83.9%
Second compound 3.16 µM, first compound 1 µM
  viability, T/C: 77.7%
Second compound 3.16 µM, first compound 3.16 µM
  viability, T/C: 88%
Second compound 3.16 µM, first compound 10 µM
  viability, T/C: 85.5%
Second compound 10 µM, first compound 0.0316 µM
  viability, T/C: 74.3%
Second compound 10 µM, first compound 0.1 µM
  viability, T/C: 65.3%
Second compound 10 µM, first compound 0.316 µM
  viability, T/C: 69.4%
Second compound 10 µM, first compound 1 µM
  viability, T/C: 67.8%
Second compound 10 µM, first compound 3.16 µM
  viability, T/C: 73.8%
Second compound 10 µM, first compound 10 µM
  viability, T/C: 70.1%

## CNC(=O)c1ccc(N2C(=S)N(c3ccc(C#N)c(C(F)(F)F)c3)C(=O)C2(C)C)cc1F + COc1c(OCCCN2CCOCC2)ccc2c3n(c(=NC(=O)c4cnc(N)nc4)nc12)CCN3
[1]
  IC50: > 10 µM
[2]
  IC50: > 10 µM
[3]
  IC50: > 10 µM
[4]
  IC50: > 10 µM
[5]
  IC50: < 0.0316 µM
[6]
  IC50: < 0.0316 µM
[7]
  viability, T/C: 116%
[8]
  viability, T/C: 92.3%
[9]
  viability, T/C: 114%
[10]
  viability, T/C: 103%
[11]
  viability, T/C: 105%
[12]
  viability, T/C: 107%
[13]
  viability, T/C: 102%
[14]
  viability, T/C: 94.5%
[15]
  viability, T/C: 101%
[16]
  viability, T/C: 94%
[17]
  viability, T/C: 104%
[18]
  viability, T/C: 98%
[19]
  viability, T/C: 91.1%
[20]
  viability, T/C: 102%
[21]
  viability, T/C: 91.2%
[22]
  viability, T/C: 93.2%
[23]
  viability, T/C: 88.9%
[24]
  viability, T/C: 88.8%
[25]
  viability, T/C: 78%
[26]
  viability, T/C: 74.5%
[27]
  viability, T/C: 89.4%
[28]
  viability, T/C: 71.8%
[29]
  viability, T/C: 73%
[30]
  viability, T/C: 72.5%
[31]
  viability, T/C: 49.2%
[32]
  viability, T/C: 50.8%
[33]
  viability, T/C: 47.5%
[34]
  viability, T/C: 48.5%
[35]
  viability, T/C: 47.6%
[36]
  viability, T/C: 34.1%
[37]
  viability, T/C: 26.7%
[38]
  viability, T/C: 31%
[39]
  viability, T/C: 26.7%
[40]
  viability, T/C: 27.5%
[41]
  viability, T/C: 26.2%
[42]
  viability, T/C: 23.9%
